Values joined by “and” are separate entries in the source; they are usually repeats but may differ in a detail not shown here. Equal entries are not always repeated.
Assays:
[1] = Hygroscopicity study of Crystal Form A; type: physicochemical; conditions: 25° C., 24 hours
From the text: Categorization in the hygroscopicity evaluation is as follows:
• 1) Two dry stoppered glass weighing bottles (50 mm external diameter, 30 mm high) were taken and kept in a desiccator with a saturated solution of ammonium chloride in the lower part. The weighing bottles were left open.

[2] = Solid stability test for Crystal Form A (high temperature, high humidity, strong light, accelerated conditions); type: physicochemical
From the text: See Table 3 below for chromatographic conditions for the HPLC method of solid stability testing:
According to the Guideline for Stability Testing of APIs and Formulations (Chinese Pharmacopoeia 2015 Edition, Volume IV, General Principles 9001).
After being placed under high temperature and high humidity conditions, samples were placed in a desiccator for examination. On the 5th, 10th and 30th days, samples were taken for testing, and the results were compared with the initial test results on day 0. Samples placed under strong light condition were covered with a transparent lid and sealed with a sealing film and samples were taken on the 5th and 10th for testing and the results were compared to the initial test results on day 0. […] Each aliquot was placed in a double-layer LDPE bag. Each layer of LDPE bag was sealed by tying, respectively. Then the LDPE bag was placed in an aluminum foil bag and heat sealed and placed at 25° C./60% relative humidity. Samples were taken at the 3th month, 6th month, 9th month and 12th month, and placed under 40° C./75% relative humidity. Samples were taken at the 1st month, 2^ed month, 3th month and 6th month, respectively. The test results were compared with the initial test results on day 0.

human ETB receptors = target: T1, human ETB receptors (Homo sapiens, UniProt P24530); experiment: In vitro antagonistic effect on human ETB receptors (Ca2+ fluorescence, transfected CHO cells); type: cell-based; conditions: 0.3 nM endothelin-1
T1 construct: host or cells: CHO cells
T1 sequence (P24530 27-442): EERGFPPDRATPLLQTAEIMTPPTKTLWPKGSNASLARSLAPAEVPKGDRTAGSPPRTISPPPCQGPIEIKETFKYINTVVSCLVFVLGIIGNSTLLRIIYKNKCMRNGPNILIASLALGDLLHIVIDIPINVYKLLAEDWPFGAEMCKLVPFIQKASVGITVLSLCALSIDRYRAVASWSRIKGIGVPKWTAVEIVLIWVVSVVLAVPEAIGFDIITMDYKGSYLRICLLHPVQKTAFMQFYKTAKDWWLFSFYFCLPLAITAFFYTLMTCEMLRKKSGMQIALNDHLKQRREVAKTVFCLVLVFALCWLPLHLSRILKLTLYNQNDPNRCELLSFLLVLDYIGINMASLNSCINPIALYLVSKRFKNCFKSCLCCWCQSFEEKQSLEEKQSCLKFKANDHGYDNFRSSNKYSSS
Procedure: The antagonist activities of the compounds on human ETB receptors expressed in transfected CHO cells were assessed by measuring the effects of the compounds on changes in cytoplasmic Ca^2+ ion signaling induced by an agonist of human ETB receptor using a fluorescence assay. The functional activity of the ETB receptor antagonistic effect was tested at Eurofins-Cerep SA according to current standard operating procedures.
• 1. Cells were suspended in DMEM buffer (Invitrogen) and then distributed at a density of 3×10^4 cells/well in 384 plates (100 μL/well). • 2. HBSS buffer (Invitrogen) supplemented with 20 mM Hepes (Invitrogen) (pH 7.4) was mixed with the fluorescent probe (Fluo4 Direct, Invitrogen) and added to each well. Equilibrated with the cells for 60 minutes at 37° C. and then for 15 minutes at 22° C. • 3. The assay plate was placed in a microplate reader (CellLux, PerkinElmer). DMSO solution of the test compound and the positive control or HBSS buffer in appropriate concentration was added. […] Then the change in fluorescence intensity was measured. The fluorescence intensity is in proportion to the Ca^2+ ion concentration of the free cytosol. • 4. […] The standard positive control was BQ-788 and several concentrations were tested in each experiment and the data was analyzed using Prism to produce a concentration-response curve to calculate the IC50 values of the compounds. […]

[3] = 25° C./60% relative humidity, sealed, 3 months
[4] = 25° C./60% relative humidity, sealed, 6 months
[5] = 25° C./60% relative humidity, sealed, 9 months
[6] = 25° C./60% relative humidity, sealed, 12 months
[7] = 40° C., 75% relative humidity, sealed, 1 month
[8] = 40° C., 75% relative humidity, sealed, 2 months
[9] = 40° C., 75% relative humidity, sealed, 3 months
[10] = 40° C., 75% relative humidity, sealed, 6 months
[11] = High humidity (room temperature/92.5% relative humidity, open), 5 days
[12] = High humidity (room temperature/92.5% relative humidity, open), 10 days
[13] = High humidity (room temperature/92.5% relative humidity, open), 30 days
[14] = High temperature (60° C., open), 5 days
[15] = High temperature (60° C., open), 10 days
[16] = High temperature (60° C., open), 30 days
[17] = Strong light (4500 ± 500 lux-hr, 90 μw-hr/cm^2, sealed), 5 days
[18] = Strong light (4500 ± 500 lux-hr, 90 μw-hr/cm^2, sealed), 10 days

COCCNS(=O)(=O)Nc1ncnc(OCCOc2ncc(Br)cn2)c1-c1ccc2c(c1)OCO2
Hygroscopicity categorization [1]: non- or almost non-hygroscopic | Moisture-absorption weight gain, Mean (%) ([1]; mean of two samples, desiccator with saturated ammonium chloride solution): 0.075% | Weight gain percentage (%) ([1]; single sample, desiccator with saturated ammonium chloride solution): 0.11% and 0.04% | Appearance ([2]; 0 day (initial)): White powder | Crystal Form ([2]; 0 day (initial)): Crystal Form A | Crystal Form A of the compound of formula (I) (%) ([2]; 0 day (initial)): 99.2% | Total impurities (%) ([2]; 0 day (initial)): 0.26% | Appearance [2, 3]: White powder | Crystal Form [2, 3]: Crystal Form A | Crystal Form A of the compound of formula (I) (%) [2, 3]: 100.2% | Total impurities (%) [2, 3]: 0.13% | Appearance [2, 4]: White powder | Crystal Form [2, 4]: Crystal Form A | Crystal Form A of the compound of formula (I) (%) [2, 4]: 100.1% | Total impurities (%) [2, 4]: 0.20% | Appearance [2, 5]: White powder | Crystal Form A of the compound of formula (I) (%) [2, 5]: 100.0% | Total impurities (%) [2, 5]: 0.13% | Appearance [2, 6]: White powder | Crystal Form A of the compound of formula (I) (%) [2, 6]: 100.1% | Total impurities (%) [2, 6]: 0.16% | Appearance [2, 7]: White powder | Crystal Form A of the compound of formula (I) (%) [2, 7]: 99.2% | Total impurities (%) [2, 7]: 0.14% | Appearance [2, 8]: White powder | Crystal Form A of the compound of formula (I) (%) [2, 8]: 99.3% | Total impurities (%) [2, 8]: 0.14% | Appearance [2, 9]: White powder | Crystal Form [2, 9]: Crystal Form A | Crystal Form A of the compound of formula (I) (%) [2, 9]: 100.6% | Total impurities (%) [2, 9]: 0.13% | Appearance [2, 10]: White powder | Crystal Form [2, 10]: Crystal Form A | Crystal Form A of the compound of formula (I) (%) [2, 10]: 100.2% | Total impurities (%) [2, 10]: 0.20% | Appearance [2, 11]: White powder | Crystal Form A of the compound of formula (I) (%) [2, 11]: 99.7% | Total impurities (%) [2, 11]: 0.30% | Appearance [2, 12]: White powder | Crystal Form A of the compound of formula (I) (%) [2, 12]: 99.5% | Total impurities (%) [2, 12]: 0.31% | Appearance [2, 13]: White powder | Crystal Form A of the compound of formula (I) (%) [2, 13]: 99.5% | Total impurities (%) [2, 13]: 0.15% | Appearance [2, 14]: White powder | Crystal Form A of the compound of formula (I) (%) [2, 14]: 100.1% | Total impurities (%) [2, 14]: 0.30% | Appearance [2, 15]: White powder | Crystal Form A of the compound of formula (I) (%) [2, 15]: 100.0% | Total impurities (%) [2, 15]: 0.31% | Appearance [2, 16]: White powder | Crystal Form A of the compound of formula (I) (%) [2, 16]: 99.1% | Total impurities (%) [2, 16]: 0.14% | Appearance [2, 17]: White powder | Crystal Form A of the compound of formula (I) (%) [2, 17]: 99.7% | Total impurities (%) [2, 17]: 0.29% | Appearance [2, 18]: White powder | Crystal Form A of the compound of formula (I) (%) [2, 18]: 99.6% | Total impurities (%) [2, 18]: 0.30% | Solid stability (conclusion in words) ([2]; high temperature, high humidity or strong light condition): good stability | IC50 (human ETB receptors): 32 µM

From patent US12297192B2, “Crystal form of pyrimidine sulfonamide compound and preparation method therefor” (WUXI BIOCITY BIOPHARMACEUTICS CO., LTD., priority 2019, dated 2025)
